In ChEMBL document CHEMBL2406981, “Novel pyrazoline amidoxime and their 1,2,4-oxadiazole analogues: synthesis and pharmacological screening” (Bioorg Med Chem Lett, 2013):
≈ marks a conversion by molar mass, not a printed value.

Experiments:
Type in all cases: functional
[1] = Antioxidant activity against ferric chloride-induced lipid peroxidation using egg lecithin at 0.05 ug/ml after 1 hr
[2] = Antioxidant activity against ferric chloride-induced lipid peroxidation using egg lecithin at 0.25 ug/ml after 1 hr
[3] = Antioxidant activity against ferric chloride-induced lipid peroxidation using egg lecithin at 2.5 ug/ml after 1 hr
[4] = Antioxidant activity against ferric chloride-induced lipid peroxidation using egg lecithin at 0.01 ug/ml after 1 hr
[5] = Antioxidant activity against ferric chloride-induced lipid peroxidation using egg lecithin at 0.75 ug/ml after 1 hr
[6] = Antioxidant activity against ferric chloride-induced lipid peroxidation using egg lecithin at 0.1 ug/ml after 1 hr
[7] = Antioxidant activity against ferric chloride-induced lipid peroxidation using egg lecithin at 5 ug/ml after 1 hr
[8] = Antioxidant activity against ferric chloride-induced lipid peroxidation using egg lecithin at 50 ug/ml after 1 hr
[9] = Antioxidant activity against ferric chloride-induced lipid peroxidation using egg lecithin at 100 ug/ml after 1 hr
[10] = Antioxidant activity against ferric chloride-induced lipid peroxidation using egg lecithin at 10 ug/ml after 1 hr
[11] = Antioxidant activity against ferric chloride-induced lipid peroxidation using egg lecithin at 0.5 ug/ml after 1 hr
[12] = Antioxidant activity against ferric chloride-induced lipid peroxidation using egg lecithin at 1 ug/ml after 1 hr
[13] = Antioxidant activity assessed as reducing power of ferric ion at 50 ug/ml after 20 mins; parameters: scale not given: the % may be the effect or the level left
Aspergillus flavus [14] = assay: Antimicrobial activity against Aspergillus flavus MTCC 873 at 50 ug/ml after 24 hrs by agar disc diffusion method; conditions: MTCC 873, 24 h, read-out: DIZ
Escherichia coli [15] = assay: Antimicrobial activity against Escherichia coli MTCC 724 at 50 ug/ml after 24 hrs by agar disc diffusion method; conditions: MTCC 724, 24 h, read-out: DIZ
Aspergillus niger [16] = assay: Antimicrobial activity against Aspergillus niger MTCC 281 at 100 ug/ml after 24 hrs by agar disc diffusion method; conditions: MTCC 281, 24 h, read-out: DIZ
[17] = system: Radical scavenging activity; assay: Antioxidant activity assessed as DPPH free radical scavenging activity at 100 ug/ml after 20 mins
Staphylococcus aureus [18] = assay: Antimicrobial activity against Staphylococcus aureus MTCC 96 at 100 ug/ml after 24 hrs by agar disc diffusion method; conditions: MTCC 96, 24 h, read-out: DIZ
Bacillus cereus [19] = assay: Antimicrobial activity against Bacillus cereus MTCC 8372
Bacillus cereus [20] = assay: Antimicrobial activity against Bacillus cereus MTCC 8372 at 100 ug/ml after 24 hrs by agar disc diffusion method; conditions: MTCC 8372, 24 h, read-out: DIZ
[21] = system: Radical scavenging activity; assay: Antioxidant activity assessed as DPPH free radical scavenging activity at 10 ug/ml after 20 mins
[22] = Antioxidant activity assessed as reducing power of ferric ion at 10 ug/ml after 20 mins; parameters: scale not given: the % may be the effect or the level left
Staphylococcus aureus [23] = assay: Antimicrobial activity against Staphylococcus aureus MTCC 96
Aspergillus niger [24] = assay: Antimicrobial activity against Aspergillus niger MTCC 281
Klebsiella pneumoniae [25] = assay: Antimicrobial activity against Klebsiella pneumoniae MTCC 3384 at 50 ug/ml after 24 hrs by agar disc diffusion method; conditions: MTCC 3384, 24 h, read-out: DIZ
Shigella flexneri [26] = assay: Antimicrobial activity against Shigella flexneri MTCC 1457 at 100 ug/ml after 24 hrs by agar disc diffusion method; conditions: MTCC 1457, 24 h, read-out: DIZ
Escherichia coli [27] = assay: Antimicrobial activity against Escherichia coli MTCC 724 at 100 ug/ml after 24 hrs by agar disc diffusion method; conditions: MTCC 724, 24 h, read-out: DIZ
Aspergillus flavus [28] = assay: Antimicrobial activity against Aspergillus flavus MTCC 873 at 100 ug/ml after 24 hrs by agar disc diffusion method; conditions: MTCC 873, 24 h, read-out: DIZ
[29] = Antioxidant activity assessed as reducing power of ferric ion at 100 ug/ml after 20 mins; parameters: scale not given: the % may be the effect or the level left
[30] = Antiinflammatory activity against heat-induced albumin denaturation at […] preincubated for 15 mins before heat induction by UV-vis spectrophotometer analysis
Aspergillus flavus [31] = assay: Antimicrobial activity against Aspergillus flavus MTCC 873
Staphylococcus aureus [32] = assay: Antimicrobial activity against Staphylococcus aureus MTCC 96 at 50 ug/ml after 24 hrs by agar disc diffusion method; conditions: MTCC 96, 24 h, read-out: DIZ
Escherichia coli [33] = assay: Antimicrobial activity against Escherichia coli MTCC 724
Klebsiella pneumoniae [34] = assay: Antimicrobial activity against Klebsiella pneumoniae MTCC 3384
Aspergillus niger [35] = assay: Antimicrobial activity against Aspergillus niger MTCC 281 at 50 ug/ml after 24 hrs by agar disc diffusion method; conditions: MTCC 281, 24 h, read-out: DIZ
[36] = system: Radical scavenging activity; assay: Antioxidant activity assessed as DPPH free radical scavenging activity at 50 ug/ml after 20 mins
Shigella flexneri [37] = assay: Antimicrobial activity against Shigella flexneri MTCC 1457
Bacillus cereus [38] = assay: Antimicrobial activity against Bacillus cereus MTCC 8372 at 50 ug/ml after 24 hrs by agar disc diffusion method; conditions: MTCC 8372, 24 h, read-out: DIZ
Klebsiella pneumoniae [39] = assay: Antimicrobial activity against Klebsiella pneumoniae MTCC 3384 at 100 ug/ml after 24 hrs by agar disc diffusion method; conditions: MTCC 3384, 24 h, read-out: DIZ
Shigella flexneri [40] = assay: Antimicrobial activity against Shigella flexneri MTCC 1457 at 50 ug/ml after 24 hrs by agar disc diffusion method; conditions: MTCC 1457, 24 h, read-out: DIZ

Row | Compound | inhibition [1] | inhibition [2] | inhibition [3] | inhibition [4] | inhibition [5] | inhibition [6] | inhibition [7] | inhibition [8] | inhibition [9] | inhibition [10] | inhibition [11] | inhibition [12] | Activity [13] | zone of inhibition at 50 µg/mL (Aspergillus flavus [14]) | zone of inhibition at 50 µg/mL (Escherichia coli [15]) | zone of inhibition at 100 µg/mL (Aspergillus niger [16]) | Activity [17] | zone of inhibition at 100 µg/mL (Staphylococcus aureus [18]) | MIC (Bacillus cereus [19]) | zone of inhibition at 100 µg/mL (Bacillus cereus [20]) | other results
1 | VITAMIN E | 2% | 4.1% | 17% | 1.2% | 7.7% | 3.4% | 26% | 62% | 92% | 47% | 6% | 9.3% | – | – | – | – | – | – | – | – | –
2 | N/C(=N\O)C1CC(c2ccccc2)=NN1c1ccccc1 (stereo not drawn) | 1.3% | 8% | 14.7% | 0.7% | 8.5% | 8.4% | 21% | 15% | 14% | 32% | 8.2% | 9.5% | 12% | 4 mm | 2 mm | 3 mm | 51% | 6 mm | 50 µg/mL (≈ 178 µM) | 3 mm | Activity [21]: 16%; Activity [22]: 8%; MIC (Staphylococcus aureus [23]): 40 µg/mL (≈ 143 µM); MIC (Aspergillus niger [24]): 50 µg/mL (≈ 178 µM); zone of inhibition at 50 µg/mL (Klebsiella pneumoniae [25]): 2 mm; zone of inhibition at 100 µg/mL (Shigella flexneri [26]): 10 mm; zone of inhibition at 100 µg/mL (Escherichia coli [27]): 7 mm; zone of inhibition at 100 µg/mL (Aspergillus flavus [28]): 4 mm; Activity [29]: 56%; inhibition [30]: 61.7%; MIC (Aspergillus flavus [31]): 30 µg/mL (≈ 107 µM); zone of inhibition at 50 µg/mL (Staphylococcus aureus [32]): 3 mm; MIC (Escherichia coli [33]): 50 µg/mL (≈ 178 µM); MIC (Klebsiella pneumoniae [34]): 40 µg/mL (≈ 143 µM); zone of inhibition at 50 µg/mL (Aspergillus niger [35]): 2 mm; Activity [36]: 28%; MIC (Shigella flexneri [37]): 40 µg/mL (≈ 143 µM); zone of inhibition at 50 µg/mL (Bacillus cereus [38]): 2 mm; zone of inhibition at 100 µg/mL (Klebsiella pneumoniae [39]): 8 mm; zone of inhibition at 50 µg/mL (Shigella flexneri [40]): 3 mm
3 | COc1ccccc1-c1nc(C2CC(c3ccccc3)=NN2c2ccccc2)no1 (stereo not drawn) | – | – | – | – | – | – | – | 31% | 60% | 11% | – | – | 22% | 10 mm | 4 mm | 14 mm | 44% | 6 mm | 55 µg/mL (≈ 139 µM) | 8 mm | Activity [21]: 14%; Activity [22]: 10%; MIC (Staphylococcus aureus [23]): 55 µg/mL (≈ 139 µM); MIC (Aspergillus niger [24]): 20 µg/mL (≈ 50.4 µM); zone of inhibition at 50 µg/mL (Klebsiella pneumoniae [25]): 3 mm; zone of inhibition at 100 µg/mL (Shigella flexneri [26]): 8 mm; zone of inhibition at 100 µg/mL (Escherichia coli [27]): 6 mm; zone of inhibition at 100 µg/mL (Aspergillus flavus [28]): 12 mm; Activity [29]: 54%; inhibition [30]: 23.9%; MIC (Aspergillus flavus [31]): 15 µg/mL (≈ 37.8 µM); zone of inhibition at 50 µg/mL (Staphylococcus aureus [32]): 2 mm; MIC (Escherichia coli [33]): 35 µg/mL (≈ 88.3 µM); MIC (Klebsiella pneumoniae [34]): 55 µg/mL (≈ 139 µM); zone of inhibition at 50 µg/mL (Aspergillus niger [35]): 8 mm; Activity [36]: 34%; MIC (Shigella flexneri [37]): 50 µg/mL (≈ 126 µM); zone of inhibition at 50 µg/mL (Bacillus cereus [38]): 2 mm; zone of inhibition at 100 µg/mL (Klebsiella pneumoniae [39]): 6 mm; zone of inhibition at 50 µg/mL (Shigella flexneri [40]): 3 mm
